Reference: US20260207615A1, “FLUOROPYRIDOPYRIMIDINE AND FLUOROQUINAZOLINE DERIVATIES AND METHODS OF USE THEREOF” (Frontier Medicines Corporation, priority 2022, published 2026)

Target: T1, KRAS G12C and cRAF interaction (Homo sapiens, UniProt P01116, C118S/C51S/C80L/G12C)
T1 construct: truncated version comprising amino acids 1-169
Assay: Inhibition of KRAS G12C and cRAF binding (AlphaScreen)
Format: biochemical
Conditions: KRAS G12C (Cys-light, aa 1-169) preloaded with GMPPNP, cRaf RBD (aa 50-131), 2 hours incubation
Protocol: The AlphaScreen technology was used to determine IC50s for compound inhibition of KRAS G12C (present as the Cys-light (C51S, C80L and C118S), truncated version comprising amino acids 1-169) and cRAF interaction. Compounds were diluted in 100% DMSO and each compound concentration was spotted at 200 nl/well onto low volume, white 384 well plates. The KRAS G12C contained a biotin-AviTag and the cRaf, as Ras-binding domain (amino acids 50-131, RBD), was GST-tagged. KRAS G12C was preloaded with the GTP analogue Guanosine 5′-[β,γ-imido]triphosphate (GMPPNP). The KRAS G12C was diluted in 25 mM Hepes, pH 7.4, 150 mM NaCl, 5 mM MgCl2, 0.01% TritonX-100 and 10 μM GMPPNP and added at 10 μl/well to compound-spotted plates resulting in a DMSO concentration of 2%. Plates were incubated for 2 hours. A mixture of RBD and the AlphaScreen streptavidin donor and glutathione acceptor beads diluted in 25 mM Hepes, pH 7.4, 150 mM NaCl, 5 mM MgCl2, 0.01% TritonX-100 and 2% DMSO was then added at 10 μl/well and incubated for 60-90 minutes before the samples were read for emission at 570 nm after excitation of the donor beads at 680 nm. All incubations were performed at room temperature. The final top compound concentration was 50 μM with 1:3 titrations for 10-point dose response curves. Final assay conditions were 0.5 nM KRAS G12C, 0.75 nM RBD and 5 μg/ml each of AlphaScreen donor and acceptor beads. IC50S were determined using nonlinear regression fit of [inhibitor] vs. response (4 parameters).
A counter assay was also set up to rule out inhibitors of the AlphaScreen technology itself. Compound plates were incubated for 2 hours as above with buffer only.
The AlphaScreen beads were added as above except biotin-AviTag-GST was substituted for the RBD. Samples were read and analyzed as above.

T1 sequence (P01116 1-169 isoform P01116-2 G12C/C51S/C80L/C118S): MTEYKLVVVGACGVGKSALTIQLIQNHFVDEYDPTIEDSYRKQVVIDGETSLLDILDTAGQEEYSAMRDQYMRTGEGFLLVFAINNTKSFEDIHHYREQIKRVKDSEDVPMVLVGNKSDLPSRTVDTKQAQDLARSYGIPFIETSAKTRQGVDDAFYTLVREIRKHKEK

Row | IC50 | SMILES
1 | < 10 nM | C=CC(=O)N1CCN(c2nc(OC[C@@]34CCCN3C[C@H](F)C4)nc3c(F)c(-c4cc(O)cc(Cl)c4C4CC4)ncc23)CC12COC2 [Example 31, 1-(8-(7-(3-chloro-2-cyclopropyl-5-hydroxyphenyl)-8-fluoro-2-(((2R,7aS)-2-fluorotetrahydro-1H-pyrrolizin-7a(5H)-yl)methoxy)pyrido[4,3-d]pyrimidin-4-yl)-2-oxa-5,8-diazaspiro[3.5]nonan-5-yl) prop-2-en-1-one]
2 | 10 to 100 nM | Cc1cc(/C=C/C(=O)N2CCN(c3nc(OC[C@@]45CCCN4C[C@H](F)C5)nc4c(F)c(-c5cccc6ccc(F)c(F)c56)ncc34)CC23COC3)nc(C)n1 [Example 32, (E)-1-(8-(7-(7,8-difluoronaphthalen-1-yl)-8-fluoro-2-(((2R,7aS)-2-fluorotetrahydro-1H-pyrrolizin-7a(5H)-yl)methoxy)pyrido[4,3-d]pyrimidin-4-yl)-2-oxa-5,8-diazaspiro[3.5]nonan-5-yl)-3-(2,6-dimethylpyrimidin-4-yl) prop-2-en-1-one]
3 | 10 to 100 nM | C=CC(=O)N1CCN(c2nc(OC[C@@]34CCCN3C[C@H](F)C4)nc3c(F)c(-c4cccc5ccc(F)c(Cl)c45)ncc23)CC12COC2 [Example 33, 1-(8-(7-(8-chloro-7-fluoronaphthalen-1-yl)-8-fluoro-2-(((2R,7aS)-2-fluorotetrahydro-1H-pyrrolizin-7a(5H)-yl)methoxy)pyrido[4,3-d]pyrimidin-4-yl)-2-oxa-5,8-diazaspiro[3.5]nonan-5-yl) prop-2-en-1-one]
4 | < 10 nM | C#Cc1c(F)ccc2cccc(-c3ncc4c(N5CCN(C(=O)/C=C/CN6[C@@H]7CC[C@H]6COC7)C6(COC6)C5)nc(OC[C@@]56CCCN5C[C@H](F)C6)nc4c3F)c12 [Example 34, (E)-4-((1R,5S)-3-oxa-8-azabicyclo[3.2.1]octan-8-yl)-1-(8-(7-(8-ethynyl-7-fluoronaphthalen-1-yl)-8-fluoro-2-(((2R,7aS)-2-fluorotetrahydro-1H-pyrrolizin-7a(5H)-yl)methoxy)pyrido[4,3-d]pyrimidin-4-yl)-2-oxa-5,8-diazaspiro[3.5]nonan-5-yl) but-2-en-1-one]
5 | < 10 nM | C=CC(=O)N1CCN(c2nc(OC[C@@]34CCCN3C[C@H](F)C4)nc3c(F)c(-c4cccc5ccc(F)c(F)c45)ncc23)CC12COC2 [Example 35, 1-(8-(7-(7,8-difluoronaphthalen-1-yl)-8-fluoro-2-(((2R,7aS)-2-fluorotetrahydro-1H-pyrrolizin-7a(5H)-yl)methoxy)pyrido[4,3-d]pyrimidin-4-yl)-2-oxa-5,8-diazaspiro[3.5]nonan-5-yl) prop-2-en-1-one]
6 | < 10 nM | O=C(/C=C/CN1[C@@H]2CC[C@H]1COC2)N1CCN(c2nc(OCC34CCCN3CCC4)nc3c(F)c(-c4cccc5cccc(Cl)c45)ncc23)CC12COC2 [Example 36, (E)-4-((1R,5S)-3-oxa-8-azabicyclo[3.2.1]octan-8-yl)-1-(8-(7-(8-chloronaphthalen-1-yl)-8-fluoro-2-((tetrahydro-1H-pyrrolizin-7a(5H)-yl)methoxy)pyrido[4,3-d]pyrimidin-4-yl)-2-oxa-5,8-diazaspiro[3.5]nonan-5-yl) but-2-en-1-one]
7 | 10 to 100 nM | CN1CC[C@@H]1/C=C/C(=O)N1CCN(c2nc(OC[C@@]34CCCN3C[C@H](F)C4)nc3c(F)c(-c4cccc5cccc(Cl)c45)ncc23)CC12COC2 [Example 37, (E)-1-(8-(7-(8-chloronaphthalen-1-yl)-8-fluoro-2-(((2R,7aS)-2-fluorotetrahydro-1H-pyrrolizin-7a(5H)-yl)methoxy)pyrido[4,3-d]pyrimidin-4-yl)-2-oxa-5,8-diazaspiro[3.5]nonan-5-yl)-3-((R)-1-methylazetidin-2-yl) prop-2-en-1-one]
8 | 10 to 100 nM | C=CC(=O)N1CCN(c2nc(OC[C@@]34CCCN3C[C@H](F)C4)nc3c(F)c(-c4cccc(Cl)c4C4CC4)ncc23)CC12COC2 [Example 38, 1-(8-(7-(3-chloro-2-cyclopropylphenyl)-8-fluoro-2-(((2R,7aS)-2-fluorotetrahydro-1H-pyrrolizin-7a(5H)-yl)methoxy)pyrido[4,3-d]pyrimidin-4-yl)-2-oxa-5,8-diazaspiro[3.5]nonan-5-yl) prop-2-en-1-one]
9 | 10 to 100 nM | C=CC(=O)N1CCN(c2nc(OC[C@@]34CCCN3C[C@H](F)C4)nc3c(F)c(-c4cccc(Cl)c4C(F)(F)F)ncc23)CC12COC2 [Example 39, 1-(8-(7-(3-chloro-2-(trifluoromethyl)phenyl)-8-fluoro-2-(((2R,7aS)-2-fluorotetrahydro-1H-pyrrolizin-7a(5H)-yl)methoxy)pyrido[4,3-d]pyrimidin-4-yl)-2-oxa-5,8-diazaspiro[3.5]nonan-5-yl) prop-2-en-1-one]
10 | 100 to 500 nM | CC(C#CC(=O)N1CCN(c2nc(OC[C@@]34CCCN3C[C@H](F)C4)nc3c(F)c(-c4cccc5cccc(Cl)c45)ncc23)CC12COC2)N1CCOCC1 (stereo partly drawn) [Example 40, 1-(8-(7-(8-chloronaphthalen-1-yl)-8-fluoro-2-(((2R,7aS)-2-fluorotetrahydro-1H-pyrrolizin-7a(5H)-yl)methoxy)pyrido[4,3-d]pyrimidin-4-yl)-2-oxa-5,8-diazaspiro[3.5]nonan-5-yl)-4-morpholinopent-2-yn-1-one]
11 | < 10 nM | Cc1nccc(/C=C/C(=O)N2CCN(c3nc(OC[C@@]45CCCN4C[C@H](F)C5)nc4c(F)c(-c5cc(O)cc(Cl)c5C5CC5)ncc34)CC23COC3)n1 [Example 41, (E)-1-(8-(7-(3-chloro-2-cyclopropyl-5-hydroxyphenyl)-8-fluoro-2-(((2R,7aS)-2-fluorotetrahydro-1H-pyrrolizin-7a(5H)-yl)methoxy)pyrido[4,3-d]pyrimidin-4-yl)-2-oxa-5,8-diazaspiro[3.5]nonan-5-yl)-3-(2-methylpyrimidin-4-yl) prop-2-en-1-one]
12 | < 10 nM | C#Cc1c(F)ccc2cccc(-c3ncc4c(N5CCN(C(=O)/C=C/CN6C[C@@H]7C[C@H]6CO7)C6(COC6)C5)nc(OC[C@@]56CCCN5C[C@H](F)C6)nc4c3F)c12 [Example 42, (E)-4-((1S,4S)-2-oxa-5-azabicyclo[2.2.1]heptan-5-yl)-1-(8-(7-(8-ethynyl-7-fluoronaphthalen-1-yl)-8-fluoro-2-(((2R,7aS)-2-fluorotetrahydro-1H-pyrrolizin-7a(5H)-yl)methoxy)pyrido[4,3-d]pyrimidin-4-yl)-2-oxa-5,8-diazaspiro[3.5]nonan-5-yl) but-2-en-1-one]
13 | 10 to 100 nM | C#Cc1c(F)ccc2cccc(-c3ncc4c(N5CCN(C(=O)/C=C/CN6CC[C@@H](OC)C6)C6(COC6)C5)nc(OC[C@@]56CCCN5C[C@H](F)C6)nc4c3F)c12 [Example 43, (E)-1-(8-(7-(8-ethynyl-7-fluoronaphthalen-1-yl)-8-fluoro-2-(((2R,7aS)-2-fluorotetrahydro-1H-pyrrolizin-7a(5H)-yl)methoxy)pyrido[4,3-d]pyrimidin-4-yl)-2-oxa-5,8-diazaspiro[3.5]nonan-5-yl)-4-((R)-3-methoxypyrrolidin-1-yl) but-2-en-1-one]
14 | < 10 nM | C#Cc1c(F)ccc2cccc(-c3ncc4c(N5CCN(C(=O)/C=C/CN6CC[C@@H](F)C6)C6(COC6)C5)nc(OC[C@@]56CCCN5C[C@H](F)C6)nc4c3F)c12 [Example 44, (E)-1-(8-(7-(8-ethynyl-7-fluoronaphthalen-1-yl)-8-fluoro-2-(((2R,7aS)-2-fluorotetrahydro-1H-pyrrolizin-7a(5H)-yl)methoxy)pyrido[4,3-d]pyrimidin-4-yl)-2-oxa-5,8-diazaspiro[3.5]nonan-5-yl)-4-((R)-3-fluoropyrrolidin-1-yl) but-2-en-1-one]
15 | < 10 nM | C=CC(=O)N1CCN(c2nc(OC[C@@]34CCCN3C[C@H](F)C4)nc3c(F)c(-c4cccc5ccc(F)c(CC)c45)ncc23)CC12COC2 [Example 45, 1-(8-(7-(8-ethyl-7-fluoronaphthalen-1-yl)-8-fluoro-2-(((2R,7aS)-2-fluorotetrahydro-1H-pyrrolizin-7a(5H)-yl)methoxy)pyrido[4,3-d]pyrimidin-4-yl)-2-oxa-5,8-diazaspiro[3.5]nonan-5-yl) prop-2-en-1-one]
16 | < 10 nM | C#Cc1c(F)ccc2cccc(-c3ncc4c(N5CCN(C(=O)/C=C/CN6C[C@H]7C[C@@H]6CO7)C6(COC6)C5)nc(OC[C@@]56CCCN5C[C@H](F)C6)nc4c3F)c12 [Example 46, (E)-4-((1R,4R)-2-oxa-5-azabicyclo[2.2.1]heptan-5-yl)-1-(8-(7-(8-ethynyl-7-fluoronaphthalen-1-yl)-8-fluoro-2-(((2R,7aS)-2-fluorotetrahydro-1H-pyrrolizin-7a(5H)-yl)methoxy)pyrido[4,3-d]pyrimidin-4-yl)-2-oxa-5,8-diazaspiro[3.5]nonan-5-yl) but-2-en-1-one]
